Columns and labels:
[1] = biological target: Serine/threonine-protein kinase ULK1 (Homo sapiens) (UniProt O75385); assay: ULK1 DiscoveRx kinase panel; conditions: Compound concentration 1.0 uM
[2] = biological target: Ephrin type-B receptor 4 (Homo sapiens) (UniProt P54760); assay: EPHB4 DiscoveRx kinase panel; conditions: Compound concentration 1.0 uM
[3] = biological target: ALK tyrosine kinase receptor (Homo sapiens) (UniProt Q9UM73); assay: ALK DiscoveRx kinase panel; conditions: Compound concentration 1.0 uM
[4] = biological target: Cyclin-dependent kinase 19 (Homo sapiens) (UniProt Q9BWU1); assay: CDK11 DiscoveRx kinase panel; conditions: Compound concentration 1.0 uM
Sequence of Cyclin-dependent kinase 19 (Homo sapiens) (Q9BWU1 whole entry): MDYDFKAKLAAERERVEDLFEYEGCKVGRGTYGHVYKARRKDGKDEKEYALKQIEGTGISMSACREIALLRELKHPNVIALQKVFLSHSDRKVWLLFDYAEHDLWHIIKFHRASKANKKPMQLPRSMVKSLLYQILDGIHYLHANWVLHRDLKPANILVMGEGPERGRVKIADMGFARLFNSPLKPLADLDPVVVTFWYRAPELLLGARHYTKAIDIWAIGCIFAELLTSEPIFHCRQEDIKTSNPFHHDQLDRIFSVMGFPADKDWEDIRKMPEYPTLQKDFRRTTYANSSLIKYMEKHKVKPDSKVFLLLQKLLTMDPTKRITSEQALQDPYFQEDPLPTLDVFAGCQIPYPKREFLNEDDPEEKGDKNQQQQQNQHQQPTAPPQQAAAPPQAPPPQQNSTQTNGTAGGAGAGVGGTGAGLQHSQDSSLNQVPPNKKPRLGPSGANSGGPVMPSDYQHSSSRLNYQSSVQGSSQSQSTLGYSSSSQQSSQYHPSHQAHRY

[5] = biological target: Protein-tyrosine kinase 6 (Homo sapiens) (UniProt Q13882); assay: BRK DiscoveRx kinase panel; conditions: Compound concentration 1.0 uM
Rattus norvegicus = organism: Rattus norvegicus; assay: Inhibition of Glycine, Strychnine-Sensitive at 10 µM in the Eurofins-Panlabs radioligand binding assay (Eurofins_assay_239000); conditions: Compound concentration 10.0 uM
[6] = biological target: G protein-coupled receptor kinase 3 (Homo sapiens) (UniProt P35626); assay: GRK3 DiscoveRx kinase panel; conditions: Compound concentration 1.0 uM
[7] = biological target: Epidermal growth factor receptor (Homo sapiens) (UniProt P00533); assay: EGFR DiscoveRx kinase panel; conditions: Compound concentration 1.0 uM
[8] = biological target: Mitogen-activated protein kinase kinase kinase 1 (Homo sapiens) (UniProt Q13233); assay: MAP3K1 DiscoveRx kinase panel; conditions: Compound concentration 1.0 uM
Caco-2 = assay: Caco2 cell line Proliferation assay; format: functional, Homo sapiens; conditions: time 4 day
[9] = biological target: Ephrin type-A receptor 2 (Homo sapiens) (UniProt P29317); assay: EPHA2 DiscoveRx kinase panel; conditions: Compound concentration 1.0 uM
[10] = biological target: Platelet-derived growth factor receptor beta (Homo sapiens) (UniProt P09619); assay: PDGFRB DiscoveRx kinase panel; conditions: Compound concentration 1.0 uM
[11] = biological target: Peroxisome proliferator-activated receptor gamma (Homo sapiens) (UniProt P37231); assay: PPARgamma Eurofins-Panlabs radioligand binding assay; set-up: ligand concentration 5 nM; conditions: Compound concentration 10.0 uM
[12] = biological target: Serine/threonine-protein kinase 17B (Homo sapiens) (UniProt O94768); assay: DRAK2 DiscoveRx kinase panel; conditions: Compound concentration 1.0 uM
Sequence of Serine/threonine-protein kinase 17B (Homo sapiens) (O94768 whole entry): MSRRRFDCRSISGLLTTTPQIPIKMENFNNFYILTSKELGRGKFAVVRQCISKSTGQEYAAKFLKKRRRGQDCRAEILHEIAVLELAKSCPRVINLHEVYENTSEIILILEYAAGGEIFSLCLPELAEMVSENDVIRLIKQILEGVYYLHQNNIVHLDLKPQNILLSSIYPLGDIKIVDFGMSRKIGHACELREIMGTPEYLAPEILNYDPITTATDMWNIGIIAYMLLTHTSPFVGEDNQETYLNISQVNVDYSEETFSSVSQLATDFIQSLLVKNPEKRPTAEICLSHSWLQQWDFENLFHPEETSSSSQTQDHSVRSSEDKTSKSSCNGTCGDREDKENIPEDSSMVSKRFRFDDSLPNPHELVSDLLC

[13] = biological target: Cyclin-dependent kinase 18 (Homo sapiens) (UniProt Q07002); assay: PCTK3 DiscoveRx kinase panel; conditions: Compound concentration 1.0 uM
[14] = biological target: Dual specificity mitogen-activated protein kinase kinase 5 (Homo sapiens) (UniProt Q13163); assay: MEK5 DiscoveRx kinase panel; conditions: Compound concentration 1.0 uM
[15] = biological target: Cyclin-dependent kinase 5 (Homo sapiens) (UniProt Q00535); assay: CDK5 DiscoveRx kinase panel; conditions: Compound concentration 1.0 uM
[16] = biological target: Proto-oncogene tyrosine-protein kinase Src (Homo sapiens) (UniProt P12931); assay: SRC DiscoveRx kinase panel; conditions: Compound concentration 1.0 uM
Sequence of Proto-oncogene tyrosine-protein kinase Src (Homo sapiens) (P12931 2-536 limits assumed): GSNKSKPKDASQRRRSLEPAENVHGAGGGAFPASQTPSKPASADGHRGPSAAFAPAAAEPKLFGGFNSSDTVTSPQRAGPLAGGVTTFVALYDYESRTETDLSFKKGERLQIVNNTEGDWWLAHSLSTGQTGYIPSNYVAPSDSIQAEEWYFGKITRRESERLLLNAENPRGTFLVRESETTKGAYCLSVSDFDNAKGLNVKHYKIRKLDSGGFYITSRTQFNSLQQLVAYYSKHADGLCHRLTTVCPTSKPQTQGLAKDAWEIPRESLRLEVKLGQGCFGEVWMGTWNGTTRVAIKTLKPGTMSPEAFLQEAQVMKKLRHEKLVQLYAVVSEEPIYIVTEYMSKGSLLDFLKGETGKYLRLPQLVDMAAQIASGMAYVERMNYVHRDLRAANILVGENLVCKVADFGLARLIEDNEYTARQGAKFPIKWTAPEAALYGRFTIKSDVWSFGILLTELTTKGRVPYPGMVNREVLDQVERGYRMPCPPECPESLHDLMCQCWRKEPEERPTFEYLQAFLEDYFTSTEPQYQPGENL

[17] = biological target: Muscarinic acetylcholine receptor M5 (Homo sapiens) (UniProt P08912); conditions: Compound concentration 10.0 uM
[18] = biological target: D(1B) dopamine receptor (Homo sapiens) (UniProt P21918); conditions: Compound concentration 10.0 uM
[19] = biological target: C-X-C chemokine receptor type 2 (Homo sapiens) (UniProt P25025); assay: Chemokine CXCR2 (IL-8RB) Eurofins-Panlabs radioligand binding assay; conditions: Compound concentration 10.0 uM
[20] = biological target: Casein kinase II subunit alpha' (Homo sapiens) (UniProt P19784); assay: CSNK2A2 DiscoveRx kinase panel; conditions: Compound concentration 1.0 uM
[21] = biological target: Alpha-2C adrenergic receptor (Homo sapiens, UniProt P18825); assay: GPCRScan assay: inhibition of Alpha2C; set-up: radioligand conc. used [nm] 0.5 – 1.0, parental cells stable MDCK
Sequence of Alpha-2C adrenergic receptor (P18825 whole entry): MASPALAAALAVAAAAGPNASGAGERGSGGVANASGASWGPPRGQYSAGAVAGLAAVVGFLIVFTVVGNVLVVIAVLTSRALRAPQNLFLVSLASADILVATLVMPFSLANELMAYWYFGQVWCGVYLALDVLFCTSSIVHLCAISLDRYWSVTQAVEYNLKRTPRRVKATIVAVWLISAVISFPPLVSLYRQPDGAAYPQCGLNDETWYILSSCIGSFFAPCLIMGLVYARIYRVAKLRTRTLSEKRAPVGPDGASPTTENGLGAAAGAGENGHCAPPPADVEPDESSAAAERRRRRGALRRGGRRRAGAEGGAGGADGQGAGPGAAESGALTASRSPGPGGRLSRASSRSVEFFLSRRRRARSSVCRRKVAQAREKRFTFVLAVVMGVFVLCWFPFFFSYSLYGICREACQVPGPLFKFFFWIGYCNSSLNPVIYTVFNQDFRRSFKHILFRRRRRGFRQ

[22] = biological target: Tyrosine-protein kinase CSK (Homo sapiens) (UniProt P41240); assay: CSK DiscoveRx kinase panel; conditions: Compound concentration 1.0 uM
[23] = biological target: Serine/threonine-protein kinase 17A (Homo sapiens) (UniProt Q9UEE5); assay: DRAK1 DiscoveRx kinase panel; conditions: Compound concentration 1.0 uM
[24] = biological target: Calcium/calmodulin-dependent protein kinase type 1 (Homo sapiens) (UniProt Q14012); assay: CAMK1 DiscoveRx kinase panel; conditions: Compound concentration 1.0 uM
[25] = biological target: Ribosomal protein S6 kinase alpha-5 (Homo sapiens) (UniProt O75582); assay: RPS6KA5(Kin.Dom.2-C-terminal) DiscoveRx kinase panel; conditions: Compound concentration 1.0 uM
Sequence of Ribosomal protein S6 kinase alpha-5 (Homo sapiens) (O75582 whole entry, looked up): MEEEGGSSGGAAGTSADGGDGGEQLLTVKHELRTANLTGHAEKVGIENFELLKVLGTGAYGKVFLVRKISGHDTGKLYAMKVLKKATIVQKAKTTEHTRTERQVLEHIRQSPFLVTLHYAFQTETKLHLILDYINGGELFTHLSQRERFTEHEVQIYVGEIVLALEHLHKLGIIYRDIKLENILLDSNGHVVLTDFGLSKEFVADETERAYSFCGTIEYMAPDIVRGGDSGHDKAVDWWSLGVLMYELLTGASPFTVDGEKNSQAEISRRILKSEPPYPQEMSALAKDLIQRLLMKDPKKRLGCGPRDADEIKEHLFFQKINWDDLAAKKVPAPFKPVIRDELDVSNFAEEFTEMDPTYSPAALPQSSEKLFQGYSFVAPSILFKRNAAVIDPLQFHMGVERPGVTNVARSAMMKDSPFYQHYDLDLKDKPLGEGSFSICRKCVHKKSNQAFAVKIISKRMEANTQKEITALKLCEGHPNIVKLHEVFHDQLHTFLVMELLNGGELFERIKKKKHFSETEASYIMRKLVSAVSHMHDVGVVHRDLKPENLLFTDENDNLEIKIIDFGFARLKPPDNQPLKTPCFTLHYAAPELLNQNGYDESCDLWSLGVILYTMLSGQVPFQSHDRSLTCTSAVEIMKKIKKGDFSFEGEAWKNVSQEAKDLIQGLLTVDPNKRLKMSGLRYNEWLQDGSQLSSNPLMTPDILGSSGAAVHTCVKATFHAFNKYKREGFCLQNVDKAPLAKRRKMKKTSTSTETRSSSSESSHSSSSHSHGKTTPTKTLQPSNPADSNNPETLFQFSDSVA

[26] = biological target: Homeodomain-interacting protein kinase 1 (Homo sapiens) (UniProt Q86Z02); assay: HIPK1 DiscoveRx kinase panel; conditions: Compound concentration 1.0 uM
[27] = biological target: Cannabinoid receptor 2 (Homo sapiens) (UniProt P34972); conditions: Compound concentration 10.0 uM
[28] = biological target: 5-hydroxytryptamine receptor 2B (Homo sapiens) (UniProt P41595); conditions: Compound concentration 10.0 uM
[29] = biological target: Macrophage-stimulating protein receptor (Homo sapiens) (UniProt Q04912); assay: MST1R DiscoveRx kinase panel; conditions: Compound concentration 1.0 uM
[30] = biological target: Glutamate NMDA receptor (Rattus norvegicus) (UniProt P35439+Q00959+Q00960+Q00961+Q62645+Q8VHN2+Q9R1M7); conditions: Compound concentration 10.0 uM
[31] = biological target: Phosphodiesterase 3 (Homo sapiens) (UniProt Q14432+Q13370); assay: Inhibition of Phosphodiesterase PDE3 at compound concentration of 10.0 uM in the Eurofins-Panlabs enzyme assay (Eurofins_assay_152000); format: protein assay; set-up: substrate with concentration 1.01 uM [3H] cAMP + cAMP, incubation time 20 min, incubation temperature 25 C; conditions: Compound concentration 10.0 uM
[32] = biological target: Homeodomain-interacting protein kinase 3 (Homo sapiens) (UniProt Q9H422); assay: HIPK3 DiscoveRx kinase panel; conditions: Compound concentration 1.0 uM
[33] = biological target: Tyrosine-protein kinase JAK1 (Homo sapiens) (UniProt P23458); assay: JAK1(JH1domain-catalytic) DiscoveRx kinase panel; conditions: Compound concentration 1.0 uM
[34] = biological target: Serine/threonine-protein kinase MAK (Homo sapiens) (UniProt P20794); assay: MAK DiscoveRx kinase panel; conditions: Compound concentration 1.0 uM
[35] = biological target: Tyrosine-protein kinase Blk (Homo sapiens) (UniProt P51451); assay: BLK DiscoveRx kinase panel; conditions: Compound concentration 1.0 uM
[36] = biological target: Cyclin-dependent kinase-like 2 (Homo sapiens) (UniProt Q92772); assay: CDKL2 DiscoveRx kinase panel; conditions: Compound concentration 1.0 uM
[37] = biological target: Beta-1 adrenergic receptor (Homo sapiens) (UniProt P08588); conditions: Compound concentration 10.0 uM
[38] = biological target: Dual specificity mitogen-activated protein kinase kinase 6 (Homo sapiens) (UniProt P52564); assay: MEK6 DiscoveRx kinase panel; conditions: Compound concentration 1.0 uM
[39] = biological target: Cyclin-dependent kinase 8 (Homo sapiens) (UniProt P49336); assay: CDK8 DiscoveRx kinase panel; conditions: Compound concentration 1.0 uM
[40] = biological target: Bone morphogenetic protein receptor type-1B (Homo sapiens) (UniProt O00238); assay: BMPR1B DiscoveRx kinase panel; conditions: Compound concentration 1.0 uM
[41] = biological target: BDNF/NT-3 growth factors receptor (Homo sapiens) (UniProt Q16620); assay: TRKB DiscoveRx kinase panel; conditions: Compound concentration 1.0 uM
[42] = biological target: 5'-AMP-activated protein kinase catalytic subunit alpha-2 (Homo sapiens) (UniProt P54646); assay: AMPK-alpha2 DiscoveRx kinase panel; conditions: Compound concentration 1.0 uM
[43] = biological target: Muscarinic acetylcholine receptor M1 (Homo sapiens) (UniProt P11229); assay: Muscarinic M1 Eurofins-Panlabs radioligand binding assay; conditions: Compound concentration 10.0 uM
[44] = biological target: Membrane-associated tyrosine- and threonine-specific cdc2-inhibitory kinase (Homo sapiens) (UniProt Q99640); assay: PKMYT1 DiscoveRx kinase panel; conditions: Compound concentration 1.0 uM
[45] = biological target: Serine/threonine-protein kinase PAK 6 (Homo sapiens) (UniProt Q9NQU5); assay: PAK6 DiscoveRx kinase panel; conditions: Compound concentration 1.0 uM
Sequence of Serine/threonine-protein kinase PAK 6 (Homo sapiens) (Q9NQU5 whole entry, looked up): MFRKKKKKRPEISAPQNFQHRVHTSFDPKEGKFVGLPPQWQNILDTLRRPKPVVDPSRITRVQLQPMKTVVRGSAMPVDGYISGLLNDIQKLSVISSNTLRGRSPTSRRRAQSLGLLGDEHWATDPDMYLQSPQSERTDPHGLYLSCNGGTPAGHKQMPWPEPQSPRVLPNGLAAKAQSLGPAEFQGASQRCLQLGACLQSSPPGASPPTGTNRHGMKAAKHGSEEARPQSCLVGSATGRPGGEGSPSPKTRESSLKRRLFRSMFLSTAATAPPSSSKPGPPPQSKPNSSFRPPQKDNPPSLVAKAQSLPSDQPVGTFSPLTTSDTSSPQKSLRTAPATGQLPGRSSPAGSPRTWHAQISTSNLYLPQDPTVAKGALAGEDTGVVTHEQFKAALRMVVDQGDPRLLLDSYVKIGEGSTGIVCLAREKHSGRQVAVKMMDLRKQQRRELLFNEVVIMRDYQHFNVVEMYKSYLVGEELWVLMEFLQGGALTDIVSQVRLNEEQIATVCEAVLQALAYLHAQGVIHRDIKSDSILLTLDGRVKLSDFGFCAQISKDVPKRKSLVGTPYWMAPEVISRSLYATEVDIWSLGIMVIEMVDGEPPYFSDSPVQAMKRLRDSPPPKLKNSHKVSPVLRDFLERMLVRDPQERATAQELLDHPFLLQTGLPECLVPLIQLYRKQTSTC

[46] = biological target: Leukocyte tyrosine kinase receptor (Homo sapiens) (UniProt P29376); assay: LTK DiscoveRx kinase panel; conditions: Compound concentration 1.0 uM
[47] = biological target: 5-hydroxytryptamine receptor 7 (Homo sapiens, UniProt P34969); assay: GPCRScan assay: inhibition of 5-HT7A; set-up: radioligand conc. used [nm] 5.0 – 6.0, parental cells Stable HEK
Sequence of 5-hydroxytryptamine receptor 7 (P34969 whole entry): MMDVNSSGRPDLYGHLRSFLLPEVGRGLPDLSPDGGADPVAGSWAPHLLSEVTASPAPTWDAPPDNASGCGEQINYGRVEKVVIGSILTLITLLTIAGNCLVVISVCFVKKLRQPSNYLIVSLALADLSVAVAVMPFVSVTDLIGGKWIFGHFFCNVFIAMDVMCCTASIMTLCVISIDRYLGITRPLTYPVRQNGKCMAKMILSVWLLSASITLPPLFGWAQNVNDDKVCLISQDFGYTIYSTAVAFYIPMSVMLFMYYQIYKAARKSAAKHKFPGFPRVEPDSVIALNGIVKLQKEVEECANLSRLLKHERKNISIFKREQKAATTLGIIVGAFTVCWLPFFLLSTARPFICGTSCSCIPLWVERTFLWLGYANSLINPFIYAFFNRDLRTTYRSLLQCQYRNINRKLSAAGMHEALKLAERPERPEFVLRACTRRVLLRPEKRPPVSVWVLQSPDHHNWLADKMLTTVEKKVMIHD

Sequence of Serine/threonine-protein kinase ULK1 (Homo sapiens) (O75385 whole entry): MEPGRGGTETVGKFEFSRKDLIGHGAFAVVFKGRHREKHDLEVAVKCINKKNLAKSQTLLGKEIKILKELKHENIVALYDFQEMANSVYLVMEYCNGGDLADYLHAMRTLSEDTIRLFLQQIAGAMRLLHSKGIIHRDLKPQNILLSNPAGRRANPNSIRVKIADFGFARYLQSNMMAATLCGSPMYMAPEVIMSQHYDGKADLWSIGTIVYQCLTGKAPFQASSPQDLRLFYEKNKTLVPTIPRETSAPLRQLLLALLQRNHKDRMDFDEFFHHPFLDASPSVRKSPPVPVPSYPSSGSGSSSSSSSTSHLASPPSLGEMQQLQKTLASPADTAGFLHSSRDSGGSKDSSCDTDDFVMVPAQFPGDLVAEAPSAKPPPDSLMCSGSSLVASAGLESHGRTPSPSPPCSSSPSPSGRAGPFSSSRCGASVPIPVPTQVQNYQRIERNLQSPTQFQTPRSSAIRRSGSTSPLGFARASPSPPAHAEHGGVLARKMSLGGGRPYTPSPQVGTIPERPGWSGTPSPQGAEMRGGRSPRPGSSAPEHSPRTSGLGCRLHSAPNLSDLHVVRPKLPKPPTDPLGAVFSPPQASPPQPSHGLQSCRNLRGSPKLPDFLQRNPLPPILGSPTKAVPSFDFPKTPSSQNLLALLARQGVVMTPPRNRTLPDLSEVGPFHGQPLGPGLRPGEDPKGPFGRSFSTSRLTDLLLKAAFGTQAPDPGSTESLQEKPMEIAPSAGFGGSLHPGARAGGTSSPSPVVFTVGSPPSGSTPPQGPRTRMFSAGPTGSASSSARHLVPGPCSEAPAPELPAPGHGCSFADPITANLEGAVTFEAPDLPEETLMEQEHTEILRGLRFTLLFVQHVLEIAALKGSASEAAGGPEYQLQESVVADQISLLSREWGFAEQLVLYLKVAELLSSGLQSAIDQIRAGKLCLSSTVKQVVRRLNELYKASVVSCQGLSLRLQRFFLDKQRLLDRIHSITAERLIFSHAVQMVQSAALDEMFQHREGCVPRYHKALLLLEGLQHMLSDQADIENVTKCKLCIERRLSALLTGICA

SMILES: COc1cnccc1Nc1nc(-c2nn(Cc3c(F)cc(OCCO)cc3F)c3ccccc23)ncc1OC
- residual activity [1]: 90%
- residual activity [2]: 93%
- residual activity [3]: 100%
- residual activity [4]: 78%
- residual activity [5]: 91%
- inhibition (Rattus norvegicus): 0%
- residual activity [6]: 100%
- residual activity [7]: 100%
- residual activity [8]: 92%
- Cell Proliferation IC50 (Caco-2): 1 µM
- residual activity [9]: 100%
- residual activity [10]: 77%
- inhibition [11]: -8%
- residual activity [12]: 83%
- residual activity [13]: 76%
- residual activity [14]: 71%
- residual activity [15]: 81%
- residual activity [16]: 100%
- inhibition [17]: 8.89%
- inhibition [18]: -0.37%
- inhibition [19]: -3%
- residual activity [20]: 48%
- Ki [21]: > 10 µM
- pKi [21]: < 5
- residual activity [22]: 77%
- residual activity [23]: 95%
- residual activity [24]: 52%
- residual activity [25]: 100%
- residual activity [26]: 94%
- inhibition [27]: 31%
- inhibition [28]: 22%
- residual activity [29]: 80%
- inhibition [30]: 4%
- inhibition [31]: 4%
- residual activity [32]: 100%
- residual activity [33]: 90%
- residual activity [34]: 73%
- residual activity [35]: 88%
- residual activity [36]: 90%
- inhibition [37]: -6.28%
- residual activity [38]: 89%
- residual activity [39]: 69%
- residual activity [40]: 100%
- residual activity [41]: 100%
- residual activity [42]: 95%
- inhibition [43]: 32%
- residual activity [44]: 100%
- residual activity [45]: 79%
- residual activity [46]: 100%
- Ki [47]: > 10 µM
- pKi [47]: < 5

— ChEMBL document CHEMBL5058649, “Data for DCP probe BAY 1816032” (2022)
